This note sets out measurements from US8618286B2, “Benzoxazines, benzothiazines, and related compounds having NOS inhibitory activity” (NeurAxon, Inc., priority 2008, dated 2013).

The target of the experiment is Nitric oxide synthase (neuronal, human recombinant) nNOS (Homo sapiens (Human), UniProt P29475). The experiment in a line: Human nNOS enzyme assay ([3H]-L-arginine to L-citrulline conversion). The class given is biochemical. As for the experimental part: nNOS (Human), eNOS (Human) and iNOS (Human) Enzyme Assay
Primary stock solutions of test compounds at a concentration of 6 mM were prepared from the 2 to 5 mg powder. The primary stock solutions of each test compound were prepared freshly in distilled water on the day of study to obtain a final concentration of 6 mM. For determination of IC50 values, 12 test compound concentrations were prepared as 3-fold serial dilutions. Concentration range of test compound utilized for nNOS were 0.001 to 300 μM and for eNOS were 0.003 to 1000 μM. The vehicle of the test compound or inhibitor was used as blank control. For non-specific activity, 100 μM L-NMMA was used. Runs using the IC50 concentration of L-NAME were done in parallel as controls.
All incubations are performed in duplicate
The reaction mixture was prepared on ice by adding the following components with a micropipette to a polypropylene microcentrifuge tube: • 10 μL of test compound, inhibitor or control (vehicle or L-NMMA) solution; • 25 μL of Reaction Buffer {25 mM Tris-HCl, 0.6 μM BH4, 0.2 μM FMN, 0.2 μM FAD}; • 5 μL of 10 mM NADPH solution {1 mM} (freshly prepared in 10 mM Tris-HCl (pH 7.4); • 5 μL of 6 mM CaCl2 {600 W}; • 5 μL of 1 mM Calmodulin {100 W}; and • 5 μL of 0.02 μg/μL nNOS or 0.12 μg/μL eNOS.
The above reaction mixture was pre-incubated at room temperature for 15 mins.
The reaction was started by the addition of the substrate (in 5 μL containing 1 μCi of [^3H]-L-Arginine+2.5 μM of unlabeled L-Arginine) to the reaction mixture. Total reaction volume is 60 μL.
The reaction was mixed using a vortex mixer and incubate the above reaction mixture at 37° C. in an incubator for 30 minutes.
To stop the reaction, 400 μL of ice-cold Stop Buffer was added at the end of the incubation period.
The reaction was then mixed using a vortex mixer, and the reaction samples were transferred to spin cups, which were centrifuged using a microcentrifuge, at 13,000 rpm for 30 sec. at room temperature.
The spin cups were removed from the holder, 450 μL of eluate (containing the unbound L-citrulline) were transferred to scintillation vials. 3 mL of scintillation fluid were added and the radioactivity was quantified in a liquid scintillation counter.
Data was analyzed using a Sigmoidal dose-response (variable slope) curve to determine the IC50 value of the test compound. Y=Bottom+(Top−Bottom)/(1+10^((Log IC50−X)*Hill Slope))

Take `CNCCN1CCSc2cc(NC(=N)c3cccs3)ccc21` [Compound 8, N-(4-(2-(methylamino)ethyl)-3,4-dihydro-2H-benzo[b][1,4]thiazin-7-yl)thiophene-2-carboximidamide]: the “Selectivity eNOS/nNOS” value (ratio of human eNOS IC50 to human nNOS IC50) worked out at 531. For the same molecule, for the setting “recombinant human nNOS”, the 50% inhibitory concentration (IC50) came to 0.06 µM.
